Laboratory results published in patent US9067949B2, “Benzofuro[3,2-c] pyridines and related analogs as serotonin sub-type 6 (5-HT6) modulators for the treatment of obesity, metabolic syndrome, cognition and schizophrenia” (Albany Molecular Research, Inc., priority 2011, dated 2015).
Like-named read-outs stand apart in the source and are kept apart here.

Key:
human 5-HT6 receptor = human 5-HT6 receptor (Homo sapiens (Human), UniProt P50406); experiment: 5-HT6 radioligand binding assay (SPA format, [N-methyl-3H]-LSD); details: human 5-HT6 receptor membranes, 10 nM [N-methyl-3H]-LSD, Ki by Cheng-Prusoff, read-out: human 5HT6 Ki
Procedure, shortened: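 Human 5-HT6 receptor membranes were incubated overnight at room temperature with 10 nM [N-methyl-3H]-LSD and competitor in 50 mM Tris-HCl pH 7.5, 5 mM MgCl2, 1 mM EDTA, 4% DMSO, read by SPA. Nonspecific binding was defined with 100 μM 5-HT. IC50 came from ten-point duplicate curves; Ki via Cheng-Prusoff.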

human 5-HT6 receptor, sequence (P50406 whole entry): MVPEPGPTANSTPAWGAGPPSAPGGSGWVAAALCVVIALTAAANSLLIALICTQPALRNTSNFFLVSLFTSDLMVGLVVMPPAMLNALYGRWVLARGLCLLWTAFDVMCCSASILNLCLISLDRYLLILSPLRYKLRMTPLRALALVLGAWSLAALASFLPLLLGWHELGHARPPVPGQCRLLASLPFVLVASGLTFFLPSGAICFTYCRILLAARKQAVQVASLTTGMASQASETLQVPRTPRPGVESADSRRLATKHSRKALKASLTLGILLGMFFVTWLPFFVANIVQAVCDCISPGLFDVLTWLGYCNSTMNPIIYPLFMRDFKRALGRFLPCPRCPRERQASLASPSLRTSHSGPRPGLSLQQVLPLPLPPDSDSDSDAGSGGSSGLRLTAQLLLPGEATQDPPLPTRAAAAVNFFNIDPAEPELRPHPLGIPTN

| SMILES | melting point | Ki (human 5-HT6 receptor) | Ki (human 5-HT6 receptor; hydrochloride) |
| --- | --- | --- | --- |
| Cc1cn(S(=O)(=O)c2ccc3oc4c(c3c2)CNCC4)c2ccccc12.Cl [Example 43, 8-(3-Methyl-1H-indol-1-ylsulfonyl)-1,2,3,4-tetrahydrobenzofuro[3,2-c]pyridine hydrochloride] | 293 to 296 °C | 0.00042 µM |  |
| Cl.O=S(=O)(c1ccccc1)c1cc(Cl)c2oc3c(c2c1)CNCC3 [Example 44, 6-Chloro-8-(phenylsulfonyl)-1,2,3,4-tetrahydrobenzofuro[3,2-c]pyridine hydrochloride] | 290 to 294 °C | 0.00055 µM |  |
| Cl.O=S(=O)(c1cccc(F)c1)c1cc(Cl)c2oc3c(c2c1)CNCC3 [Example 47, 6-Chloro-8-(3-fluorophenylsulfonyl)-1,2,3,4-tetrahydrobenzofuro[3,2-c]pyridine hydrochloride] | 276 to 278 °C | 0.00039 µM |  |
| Cl.N#Cc1cccc(S(=O)(=O)c2cc(Cl)c3oc4c(c3c2)CNCC4)c1 [Example 48, 6-Chloro-8-(3-cyanophenylsulfonyl)-1,2,3,4-tetrahydrobenzofuro[3,2-c]pyridine hydrochloride] | 272 to 274 °C | 0.012 µM |  |
| Cl.O=S(=O)(c1ccc(Cl)cc1)c1cc(Cl)c2oc3c(c2c1)CNCC3 [Example 49, 6-Chloro-8-(4-chlorophenylsulfonyl)-1,2,3,4-tetrahydrobenzofuro[3,2-c]pyridine hydrochloride] | 282 to 284 °C | 0.0019 µM |  |
| Cl.Cn1cc(S(=O)(=O)c2cc(Cl)c3oc4c(c3c2)CNCC4)c2ccccc21 [Example 50, 6-Chloro-8-(1-methyl-1H-indol-3-ylsulfonyl)-1,2,3,4-tetrahydrobenzofuro[3,2-c]pyridine] | 262 to 264 °C | 0.00017 µM |  |
| Cl.O=S(=O)(c1ccccc1)c1cc(F)c2oc3c(c2c1)CNCC3 [Example 52, 6-Fluoro-8-(phenylsulfonyl)-1,2,3,4-tetrahydrobenzofuro[3,2-c]pyridine hydrochloride] | 232 to 250 °C | 0.0051 µM |  |
| COc1cc(S(=O)(=O)c2ccccc2)cc2c3c(oc12)CCNC3.Cl [Example 54, 6-Methoxy-8-(phenylsulfonyl)-1,2,3,4-tetrahydrobenzofuro[3,2-c]pyridine hydrochloride] | 197 to 202 °C | 0.00012 µM |  |
| Cl.O=S(=O)(c1cccc(C(F)(F)F)c1)c1ccc2oc3c(c2c1)C1CCC(C3)N1 (stereo not drawn) [Example 55, 2-(3-Trifluoromethylphenyl)sulfonyl-6,7,8,9,10-pentahydro-7,10-epiminocyclohepta[b]benzofuran hydrochloride] | 296 to 298 °C | 0.053 µM |  |
| Cl.O=S(=O)(c1cccc(Cl)c1)c1ccc2oc3c(c2c1)C1CCC(C3)N1 (stereo not drawn) [Example 56, 2-(3-Chlorophenyl)sulfonyl-6,7,8,9,10-pentahydro-7,10-epiminocyclohepta[b]benzofuran hydrochloride] | 285 to 288 °C | 0.031 µM |  |
| Cl.O=S(=O)(c1cccc(F)c1)c1ccc2oc3c(c2c1)C1CCC(C3)N1 (stereo not drawn) [Example 57, 2-(3-Fluorophenyl)sulfonyl-6,7,8,9,10-pentahydro-7,10-epiminocyclohepta[b]benzofuran hydrochloride] | 200 to 210 °C | 0.133 µM |  |
| Cc1cn(S(=O)(=O)c2ccc3oc4c(c3c2)C2CCC(C4)N2)c2ccccc12.Cl (stereo not drawn) [Example 58, 2-(3-Methyl-1H-indol-1-yl)sulfonyl-6,7,8,9,10-pentahydro-7,10-epiminocyclohepta[b]benzofuran hydrochloride] | 195 to 199 °C | 0.016 µM |  |
| Cl.O=S(=O)(c1ccc2oc3c(c2c1)C1CCC(C3)N1)n1ccc2ccc(F)cc21 (stereo not drawn) [Example 59, 2-(6-Fluoro-1H-indol-1-yl)sulfonyl-6,7,8,9,10-pentahydro-7,10-epiminocyclohepta[b]benzofuran hydrochloride] | 184 to 187 °C | 0.017 µM |  |
| Cl.O=S(=O)(c1ccccc1)c1ccc2c3c(oc2c1)CCNC3 [Example 60, 7-(Phenylsulfonyl)-1,2,3,4-tetrahydrobenzofuro[3,2-c]pyridine hydrochloride] | 235 to 238 °C | 0.0098 µM |  |
| CN1CCc2oc3cc(S(=O)(=O)c4ccccc4)ccc3c2C1.Cl [Example 61, 2-Methyl-7-(phenylsulfonyl)-1,2,3,4-tetrahydrobenzofuro[3,2-c]pyridine hydrochloride] | 242 to 245 °C | 0.018 µM |  |
| Cl.O=S(=O)(c1cccc(Cl)c1)c1ccc2c3c(oc2c1)CCNC3 [Example 62, 7-(3-Chlorophenylsulfonyl)-1,2,3,4-tetrahydrobenzofuro[3,2-c]pyridine hydrochloride] | 288 to 292 °C | 0.0017 µM |  |
| Cl.O=S(=O)(c1cccc(C(F)(F)F)c1)c1ccc2c3c(oc2c1)CCNC3 [Example 63, 7-(3-Trifluoromethylphenylsulfonyl)-1,2,3,4-tetrahydrobenzofuro[3,2-c]pyridine hydrochloride] | 290 to 294 °C | 0.0021 µM |  |

| SMILES | melting point | Ki (human 5-HT6 receptor) | Ki (human 5-HT6 receptor; hydrochloride) |
| --- | --- | --- | --- |
| Cl.O=S(=O)(c1cccc(C(F)(F)F)c1)c1ccc2c3c(oc2c1)CC1CCC3N1 (stereo not drawn) [Example 64, 3-(3-Trifluoromethylphenyl)sulfonyl-6,7,8,9,10-pentahydro-7,10-epiminocyclohepta[b]benzofuran hydrochloride] | 178 to 183 °C | 0.116 µM |  |
| Cl.O=S(=O)(c1cccc(Cl)c1)c1ccc2c3c(oc2c1)CC1CCC3N1 (stereo not drawn) [Example 65, 3-(3-Chlorophenyl)sulfonyl-6,7,8,9,10-pentahydro-7,10-epiminocyclohepta[b]benzofuran hydrochloride] | 193 to 197 °C | 0.154 µM |  |
| Cl.O=S(=O)(c1ccc2c3c(oc2c1)CC1CCC3N1)n1ccc2ccccc21 (stereo not drawn) [Example 67, 3-(1H-indol-1-yl)sulfonyl-6,7,8,9,10-pentahydro-7,10-epiminocyclohepta[b]benzofuran hydrochloride] | 192 to 196 °C | 0.034 µM |  |
| Cl.O=S(=O)(c1ccccc1)c1ccc2c3c(oc2c1)CCCNC3 [Example 68, 8-(Phenylsulfonyl)-2,3,4,5-tetrahydro-1H-benzofuro[3,2-c]azepine hydrochloride] | 221 to 225 °C | 0.132 µM |  |
| Cl.O=S(=O)(c1ccccc1)c1ccc2oc3c(c2c1)CNCCC3 [Example 69, 9-(Phenylsulfonyl)-2,3,4,5-tetrahydro-1H-benzofuro[3,2-c]azepine hydrochloride] | 211 to 216 °C | 0.571 µM |  |
| Cl.O=S(=O)(c1ccccc1)c1cc(Cn2cccn2)c2oc3c(c2c1)CNCC3 [Example 75, 6-((1H-pyrazol-1-yl)methyl)-8-(phenylsulfonyl)-1,2,3,4-tetrahydrobenzofuro[3,2-c]pyridine hydrochloride] | 145 to 148 °C | 0.124 µM |  |
| Cl.O=S(=O)(c1ccccc1)c1cc(CCO)c2oc3c(c2c1)CNCC3 [Example 79, 2-(8-(phenylsulfonyl)-1,2,3,4-tetrahydrobenzofuro[3,2-c]pyridin-6-yl)ethanol hydrochloride] | 239 to 240 °C | 0.0043 µM |  |
| CC(O)Cc1cc(S(=O)(=O)c2ccccc2)cc2c3c(oc12)CCNC3.Cl (stereo not drawn) [Example 80, 1-(8-(phenylsulfonyl)-1,2,3,4-tetrahydrobenzofuro[3,2-c]pyridin-6-yl)propan-2-ol hydrochloride] | 283 to 284 °C | 0.019 µM |  |
| CC1(C)NCCc2oc3c(Cl)cc(S(=O)(=O)c4ccccc4)cc3c21.Cl [Example 84, 6-chloro-1,1-dimethyl-8-(phenylsulfonyl)-1,2,3,4-tetrahydrobenzofuro[3,2-c]pyridine hydrochloride] | 282 to 287 °C (dec.) | 0.027 µM |  |
| Cl.O=S(=O)(c1ccccc1)c1cc(Cl)c2oc3c(c2c1)C(CO)NCC3 (stereo not drawn) [Example 85, (6-chloro-8-(phenylsulfonyl)-1,2,3,4-tetrahydrobenzofuro[3,2-c]pyridin-1-yl)methanol hydrochloride] | 185 to 187 °C | 0.0016 µM |  |
| CC1CNCc2c1oc1c(Cl)cc(S(=O)(=O)c3ccccc3)cc21.Cl (stereo not drawn) [Example 89, 6-chloro-4-methyl-8-(phenylsulfonyl)-1,2,3,4-tetrahydrobenzofuro[3,2-c]pyridine hydrochloride] | 291 to 292 °C (dec.) | 0.11 µM |  |
| Cl.Clc1cc(Sc2ccccc2)cc2c3c(oc12)CCNC3 [Example 91, 6-chloro-8-(phenylthio)-1,2,3,4-tetrahydrobenzofuro[3,2-c]pyridine hydrochloride] | 241 to 248 °C (dec.) | 0.012 µM |  |
| Cl.[O-][S+](c1ccccc1)c1cc(Cl)c2oc3c(c2c1)CNCC3 (stereo not drawn) [Example 93, 6-chloro-8-(phenylsulfinyl)-1,2,3,4-tetrahydrobenzofuro[3,2-c]pyridine hydrochloride] | 264 to 272 °C (dec.) |  | 0.01 µM |
| Cl.OC(c1ccccc1)c1cc(Cl)c2oc3c(c2c1)CNCC3 (stereo not drawn) [Example 94, (6-chloro-1,2,3,4-tetrahydrobenzofuro[3,2-c]pyridin-8-yl)(phenyl)methanol hydrochloride] | 260 °C (dec.) | 0.143 µM |  |
| CC(c1ccccc1)c1cc(Cl)c2oc3c(c2c1)CNCC3.Cl (stereo not drawn) [Example 95, 6-chloro-8-(1-phenylethyl)-1,2,3,4-tetrahydrobenzofuro[3,2-c]pyridine hydrochloride] | 245 to 255 °C (dec.) | 0.0075 µM |  |
| COc1cc(Cc2ccccc2)cc2c3c(oc12)CCNC3.Cl [Example 96, 8-benzyl-6-methoxy-1,2,3,4-tetrahydrobenzofuro[3,2-c]pyridine hydrochloride] | 263 to 265 °C | 0.0049 µM |  |
